Source: ChEMBL document CHEMBL4619730, “Hypolipidemic constituents from the aerial portion of Sibiraea angustata” (Bioorg Med Chem Lett, 2020)
The source made the active and inactive calls. No cut-off for these calls is given here.

Key:
Format in all cases: functional, cell-based
HepG2 [1] = assay: Hypolipidemic activity against oleic acid-induced lipid accumulation in human HepG2 cell model assessed as decrease in 1acyl-sn-glycero-3phosphocholines (18:2/0:0) level at 10 uM by UPLC-QTOF-MS analysis
HepG2 [2] = assay: Hypolipidemic activity against oleic acid-induced lipid accumulation in human HepG2 cell model assessed as decrease in diglycerides (18:2/20:5/0:0) level at 10 uM by UPLC-QTOF-MS analysis
HepG2 [3] = assay: Hypolipidemic activity against oleic acid-induced lipid accumulation in human HepG2 cell model assessed as decrease in diglycerides (20:4/18:2/0:0) level at 10 uM by UPLC-QTOF-MS analysis
HepG2 [4] = assay: Hypolipidemic activity against oleic acid-induced lipid accumulation in human HepG2 cell model assessed as decrease in triglycerides (18:1/18:3/18:1) level at 10 uM by UPLC-QTOF-MS analysis
HepG2 [5] = assay: Hypolipidemic activity against oleic acid-induced lipid accumulation in human HepG2 cell model assessed as decrease in triglycerides (18:1/16:0/20:5) level at 10 uM by UPLC-QTOF-MS analysis
HepG2 [6] = assay: Downregulation of FASN mRNA expression in human HepG2 cells at 10 uM by qRT-PCR analysis
HepG2 [7] = assay: Hypolipidemic activity against oleic acid-induced lipid accumulation in human HepG2 cell model assessed as decrease in phosphatidylcholine (18:2/18:2) level at 10 uM by UPLC-QTOF-MS analysis
HepG2 [8] = assay: Hypolipidemic activity against oleic acid-induced lipid accumulation in human HepG2 cell model assessed as decrease in triglycerides (16:0/16:0/18:3) level at 10 uM by UPLC-QTOF-MS analysis
HepG2 [9] = assay: Downregulation of HMGCR mRNA expression in human HepG2 cells at 10 uM by qRT-PCR analysis
HepG2 [10] = assay: Hypolipidemic activity against oleic acid-induced lipid accumulation in human HepG2 cell model assessed as decrease in diglycerides (20:1/0:0/20:4) level at 10 uM by UPLC-QTOF-MS analysis
HepG2 [11] = assay: Hypolipidemic activity against oleic acid-induced lipid accumulation in human HepG2 cell model assessed as decrease in phosphatidylcholine (O-16:0/20:5) level at 10 uM by UPLC-QTOF-MS analysis
HepG2 [12] = assay: Hypolipidemic activity against oleic acid-induced lipid accumulation in human HepG2 cell model assessed as decrease in diglycerides (20:5/16:0/0:0) level at 10 uM by UPLC-QTOF-MS analysis
HepG2 [13] = assay: Downregulation of SREBF1 mRNA expression in human HepG2 cells at 10 uM by qRT-PCR analysis
HepG2 [14] = assay: Hypolipidemic activity against oleic acid-induced lipid accumulation in human HepG2 cell model assessed as decrease in triglycerides (16:0/14:0/20:5) level at 10 uM by UPLC-QTOF-MS analysis
HepG2 [15] = assay: Hypolipidemic activity in human HepG2 cells assessed as inhibition of oleic acid-induced lipid accumulation at 10 uM

COc1ccc(/C=C/C(=O)OC[C@@H]2O[C@H](OC/C=C3\C[C@@H](C=C(C)C)OC3=O)[C@@H](O)[C@H](O)[C@H]2O)cc1O
Activity (HepG2 [1]): Active
Activity (HepG2 [2]): Active
Activity (HepG2 [3]): Active
Activity (HepG2 [4]): Active
Activity (HepG2 [5]): Active
inhibition (HepG2 [6]): Active
Activity (HepG2 [7]): Active
Activity (HepG2 [8]): Active
inhibition (HepG2 [9]): inactive
Activity (HepG2 [10]): Active
Activity (HepG2 [11]): Active
Activity (HepG2 [12]): Active
inhibition (HepG2 [13]): inactive
Activity (HepG2 [14]): Active
Activity (HepG2 [15]): Active

COC(=O)/C=C/c1ccc(O)c(OC)c1
Activity (HepG2 [15]): inactive

CC(C)=CC(=O)/C=C(/C)CCO[C@H]1O[C@@H](COC(=O)/C=C/c2ccc(O)c(O)c2)[C@H](O)[C@@H](O)[C@@H]1O
Activity (HepG2 [15]): Active

CC(C)=CC(=O)/C=C(\C)CCO[C@H]1O[C@@H](COC(=O)/C=C/c2ccc(O)c(O)c2)[C@H](O)[C@@H](O)[C@@H]1O
Activity (HepG2 [15]): Active

CC(C)=C[C@@H]1C/C(=C\CO[C@H]2O[C@@H](COC(=O)/C=C/c3ccc(O)cc3)[C@H](O)[C@@H](O)[C@@H]2O)C(=O)O1
Activity (HepG2 [15]): Active

CC(C)=C[C@H]1C/C(=C\CO[C@H]2O[C@@H](COC(=O)/C=C/c3ccc(O)cc3)[C@H](O)[C@@H](O)[C@@H]2O)C(=O)O1
Activity (HepG2 [15]): inactive

COc1ccc(/C=C/C(=O)OC[C@@H]2O[C@H](OC/C=C3\C[C@H](C=C(C)C)OC3=O)[C@@H](O)[C@H](O)[C@H]2O)cc1O
Activity (HepG2 [15]): Active
